The assay deals with Dopamine receptor (Homo sapiens) (UniProt P14416+P35462+P21918+P21917+P21728). The note with it: Felis catus.

Description: Inhibition of stimulation-induced tachycardia via the presynaptic dopamine receptors

In turn, `CCCN(CCC)[C@@H]1Cc2cccc(O)c2C1` registered an ID50 of 0.007 µM. Under `CCCN(CCC)[C@H]1Cc2cccc(O)c2C1` stands 0.72 µM.
